Measured values taken from PubChem BioAssay AID1249 (Columbia University Molecular Screening Center, 2008).
Activity calls are given as the source filed them. How the calls were made is not given here.

experiment: modifiers of cytoskeleton assembly, confirmation, imaging, high-content imaging, retest and dose response (AID 1249); details: cell-based imaging, cytoskeleton assembly phenotype, high content; at 2 µM; stronger effect = higher value;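 further: compound exposure lasted 24 h before fixation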;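 on inhibition: plate controls were untreated cells for no effect and reference compound treated cells for full effect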

Row | SMILES | inhibition
1 | COc1ccc(NC(=O)C(NC(=O)c2ccccc2)C(C)C)cc1 (stereo unspecified) | 4.5% (inactive)
2 | COc1ccc(OC)c(N(CC(=O)Nc2ccccc2)S(C)(=O)=O)c1 | 16.3% (inactive)
3 | CCCOC(=O)NC(CC)COC(=O)Nc1cccc(C)c1C (stereo unspecified) | -5% (inactive)
4 | C(=N\Nc1nc2ccccc2s1)/c1cccs1 | -5.8% (inactive)
5 | Nc1nnnn1/N=C/C(Br)=C/c1ccccc1 | 1.2% (inactive)
6 | O=C(COc1ccccc1)N1CCN(CC(O)COc2ccccc2)CC1 (stereo unspecified) | 11.3% (inactive)
7 | CCCn1c(=O)c2ccccc2n2c(SCC(=O)NCc3cccs3)nnc12 | -5.9% (inactive)
8 | O=C(CCSc1nnc2scc(-c3ccccc3)n12)Nc1nc(-c2ccccc2)ns1 | -3.3% (inactive)
9 | CCc1cccc(CC)c1NC(=O)C1SC(=Nc2ccccc2C)C(c2nc3ccccc3s2)=C1N (stereo unspecified) | 5% (inactive)
10 | COc1ccc(OC)c(C(=O)c2coc3ccc(O)cc23)c1 | -8.7% (inactive)
11 | COC(=O)c1sccc1NC(=O)c1ccc(Br)s1 | 1.8% (inactive)
12 | CC(C)c1nnc(NC(=O)CCC(=O)N2CCN(C3CCCCC3)CC2)s1 | 3.6% (inactive)
13 | O=C1C(=O)c2ccccc2-c2ccccc21 | -13.5% (inactive)
14 | OC(c1ccccn1)c1c[nH]c2ccccc12 (stereo unspecified) | 14.9% (inactive)
15 | Nc1ccccc1NC(=O)c1ccccc1N | 3.6% (inactive)
16 | CC1(C)Cc2c(oc3ncn4ncnc4c23)CO1 | 2.7% (inactive)
17 | Nc1cc(=O)nc(SCc2ccccc2)n1Cc1ccco1 | 3.5% (inactive)
18 | N=c1nc(N)nc2n1NC(c1ccc(F)cc1)=CS2 | -1.7% (inactive)
19 | COC(=O)c1ccccc1NC(NC(=O)c1ccco1)C(=O)c1ccc(C)cc1 (stereo unspecified) | 2.9% (inactive)
20 | COc1ccc(-c2nc(-c3ccc(NC(=O)c4ccc(Br)o4)cc3)no2)cc1OC | -10.3% (inactive)
21 | CC(C)(C)NC(=O)CSc1nsc(SCC(=O)NC(C)(C)C)c1C#N | -0.7% (inactive)
22 | CC(=O)c1cccc(Nc2nc(-c3cccc([N+](=O)[O-])c3)cs2)c1 | -7.7% (inactive)
23 | Cc1cc(NC(=O)C(=O)NCCN2CCN(C(=O)c3cccs3)CC2)ccc1Br | 0.6% (inactive)
24 | CCS(=O)(=O)N1CCC(C(=O)NC2CCCCC2)CC1 | 3.1% (inactive)
25 | Cc1cccc(C(=O)Oc2ccccc2C2C[C@]3(C)CC(=O)NC3N2C(=O)c2cccc(C)c2)c1 (stereo partly specified) | -5.8% (inactive)

Row | SMILES | inhibition
26 | CCOC(=O)c1ccc(-n2c(=S)sc3c(=O)[nH]c(C)nc32)cc1 | 3.6% (inactive)
27 | Cc1cccc(OCC(=O)Nc2cc(C)ccc2O)c1 | -8.8% (inactive)
28 | O=C(c1ccc2c(c1)ncn2C1CCCCC1)N1CCC2(CC1)OCCO2 | 3% (inactive)
29 | O=C(CSc1nc2ccccc2s1)NNC(=S)Nc1ccc(Br)cc1 | -0.6% (inactive)
30 | Cc1cccc(NC(=O)CSc2nc3ccc(NC(=O)CSc4nnnn4-c4ccccc4)cc3s2)c1C | 2.9% (inactive)
31 | Cc1ccc(-c2nn(C(C)(C)C)c3ncnc(N)c23)cc1 | -7.8% (inactive)
32 | O=C(c1ccc2snnc2c1)N1CCSCC1 | -15.8% (inactive)
33 | CCOC(=O)C1=C(SCC)c2cc3c(n2C1=O)CCCC3 | 8.4% (inactive)
34 | Cc1cc(C)cc(OCCCCCNCCO)c1 | -6.8% (inactive)
35 | CN1Cc2cc(C(=O)c3cc(Cl)cc(CSc4ncccn4)c3O)cnc2NC1=O | 10.6% (inactive)
36 | CC(=O)c1cccc(NC(=O)NCc2cccnc2)c1 | 12.9% (inactive)
37 | CC(=O)c1ccc(Oc2cc(C)nc(-n3nc(C)cc3C)n2)cc1 | 11% (inactive)
38 | COc1ccc(NC(=O)/C(Cl)=C(/Cl)S(=O)(=O)Cc2ccc(C)cc2)cn1 | 5.2% (inactive)
39 | O=C(c1cc(-c2ccncc2)nc2ccc(Br)cc12)N1CCN(c2ccccn2)CC1 | -1% (inactive)
40 | Cc1nc(-c2cccnc2)sc1C(=O)Nc1cccc(C(F)(F)F)c1 | 2.2% (inactive)
41 | CC(C)(C)c1ccc(C(=O)N/N=C/c2cccc(Cl)c2)cc1 | 7.3% (inactive)
42 | O=C1N2CCSC2=NC1(Nc1ccccn1)C(F)(F)F (stereo unspecified) | -0.2% (inactive)
43 | Cc1ccc(O)c(NC(=O)CCC2CCCCC2)c1 | -15.6% (inactive)
44 | O=C(Nc1ncc2c(n1)CC(c1ccco1)CC2=O)c1ccc(Cl)cc1 (stereo unspecified) | -4.9% (inactive)
45 | Cc1cc(C)c(/C=N/NC(N)=O)c(C)c1/C=N/NC(N)=O | -10% (inactive)
46 | Cc1ccc(S(=O)(=O)N(CC(=O)NCc2ccco2)Cc2ccc(F)cc2)cc1 | -16.6% (inactive)
47 | O=S(=O)(C/C(=C/CO)S(=O)(=O)c1ccccc1)c1ccccc1 | -4.1% (inactive)
48 | O=[N+]([O-])c1ccc(/C=N/n2c(COc3ccccc3)n[nH]c2=S)cc1 | -4.5% (inactive)
49 | COc1ccc2c(c1)CCc1c(C(=O)N3CC4(C)CC3CC(C)(C)C4)noc1-2 (stereo unspecified) | 4.4% (inactive)
50 | COc1ccc(Cl)c(NC(=O)Nc2c(C)n(-c3ccccc3)c(=O)n2C)c1 | 0.8% (inactive)

Row | SMILES | inhibition
51 | CCn1c(CN2CCN(c3ccc(Cl)cc3)CC2)nc2ccccc21 | -1% (inactive)
52 | C=CCc1ccccc1OCC(O)CNC (stereo unspecified) | 2.3% (inactive)
53 | CCN(CC)c1ccc(C2=NNC(=O)CC2C)cc1[N+](=O)[O-] (stereo unspecified) | -7.3% (inactive)
54 | C=CCNC(=O)c1c(Cl)cccc1Cl | -5.1% (inactive)
55 | COCCCNC(=O)c1cn(C)c(=O)c2cc(OC)c(OC)cc12 | -7.3% (inactive)
56 | COc1ccc(CN2C(=O)[C@@H]3C(c4ccc(F)cc4)=NO[C@@H]3C2=O)cc1 | 6.5% (inactive)
57 | O=C1CCCc2c1[nH]c1ccc(Cl)cc21 | -17.2% (inactive)
58 | N#CCc1nc2c3c4c(sc3ncn2n1)CCCC4 | -15.1% (inactive)
59 | COc1ccccc1N(C)S(=O)(=O)c1ccc(C(=O)NCC(C)C)cc1 | 2.3% (inactive)
60 | CCOC(=O)c1ccc(N2C(=O)CC(N3CCC(O)(c4ccc(Br)cc4)CC3)C2=O)cc1 (stereo unspecified) | 5.5% (inactive)
61 | C=CCCCOc1ccc(C(=O)O)cc1 | -2.1% (inactive)
62 | CSCCC(NC(=O)OCc1ccccc1)C(=O)O (stereo unspecified) | -2% (inactive)
63 | COc1cc2[nH]cc(C(=O)NCCc3ccccc3)c(=O)c2cc1OC | 1.5% (inactive)
64 | Cc1cc(C)n(C(=O)c2ccc(NC(=O)C3COc4ccccc4O3)cc2)n1 (stereo unspecified) | 1.1% (inactive)
65 | CC1C(c2ccccc2)C(C#N)(C#N)C2(C#N)C(=O)NC1(N)C2C (stereo unspecified) | 0.4% (inactive)
66 | COc1ccccc1OCCn1cc(C(=O)c2ccco2)c2ccccc21 | 3.7% (inactive)
67 | OC1(c2cccc(C(F)(F)F)c2)CCN(c2ncnc3c2[nH]c2ccc(F)cc23)CC1 | 7.8% (inactive)
68 | O=C(Nc1ccccc1)c1nnsc1S(=O)c1ccc(Cl)cc1 (stereo unspecified) | -0.9% (inactive)
69 | O=C1Nc2ccc(S(=O)(=O)N3CCOCC3)c3cccc1c23 | 0.5% (inactive)
70 | CCCCNC(=O)CSc1cc(=O)n(C)c2ccccc12 | -21.1% (inactive)
71 | O=C(Cn1cccc1C(=O)c1ccccc1)NCCN1CCOCC1 | -4.4% (inactive)
72 | CCn1c(SCC(=O)Nc2ccc(C(=O)OC)cc2)nnc1-c1cccs1 | 0.4% (inactive)
73 | CCCn1nc([N+](=O)[O-])c(C(C#N)c2nc3ccccc3s2)c(Cl)c1=O (stereo unspecified) | 1.3% (inactive)
74 | COC(=O)c1cscc1NC(C)=O | 13.2% (inactive)
75 | Cc1cc(C)n(-c2nc(-c3cccc(Cl)c3)cs2)n1 | -10.2% (inactive)

Row | SMILES | inhibition
76 | C=CCNC(=O)c1nn2cccnc2c1Cl | -9.5% (inactive)
77 | Cn1c(NC(=O)C2c3ccccc3Oc3ccccc32)cc(=O)n(C)c1=O | -0.3% (inactive)
78 | CCOc1cc(-c2conc2N)cc(OCC)c1OCC | 10.2% (inactive)
79 | O=C1c2cccc3c([N+](=O)[O-])ccc(c23)C(=O)N1c1nccs1 | -0.1% (inactive)
80 | O=C(N/N=C/C=C/c1ccccc1)c1n[nH]c2c1CCC2 | 2% (inactive)
81 | CN1C(=O)C2(NCCc3c2[nH]c2ccccc32)c2ccccc21 (stereo unspecified) | -6.1% (inactive)
82 | COc1ccc(C(C)(C)C)cc1S(=O)(=O)N1CCN(C)CC1 | -1.6% (inactive)
83 | O=C(COC(=O)C1c2ccccc2Oc2ccccc21)NC1CCS(=O)(=O)C1 (stereo unspecified) | -16.7% (inactive)
84 | CC(C)CCN1CC(C(=O)NCCC2=CCCCC2)CC1=O (stereo unspecified) | -12.9% (inactive)
85 | COc1cc(C(=O)N(Cc2ccco2)Cc2cc3ccccc3[nH]c2=O)cc(OC)c1OC | -1% (inactive)
86 | CC(=O)c1c(C)oc2ccc(N(C(C)=O)S(=O)(=O)c3ccc(Cl)c([N+](=O)[O-])c3)cc12 | -11.2% (inactive)
87 | NC(=O)c1c(NC(=O)Cc2cccs2)sc2c1CCC2 | 6.6% (inactive)
88 | CCc1ccc(-c2nc(CN3CCC(C(=O)NCc4ccco4)CC3)c(C)o2)cc1 | 9.2% (inactive)
89 | O=c1c(-c2ccc(Br)cc2)coc2c(CN3CCOCC3)c(O)ccc12 | 3.1% (inactive)
90 | C=C1N2CCC(CC2)C1(O)c1ccccc1C (stereo unspecified) | -0.8% (inactive)
91 | Cc1nc2sc(C(c3ccc(Cl)cc3)N3CC(C)OC(C)C3)c(O)n2n1 (stereo unspecified) | -4.4% (inactive)
92 | CCOC(=O)/C(=C\c1cccnc1)C(=O)c1cc(C(C)=O)c(Nc2ccccc2)s1 | 5.1% (inactive)
93 | C=CCOc1c2ccc(C(=O)NCc3ccccc3OC)cc2nn1C | -6.1% (inactive)
94 | Cc1ccc(Cl)cc1N1CCN(C(c2cccnc2)c2nnnn2C2CCCCC2)CC1 (stereo unspecified) | 12.1% (inactive)
95 | CCCCSc1nc(C)cc(SCC(=O)N/N=C/c2cccc(OC)c2O)n1 | -6.7% (inactive)
96 | Cn1cccc1C(=O)OCC(=O)Nc1cc(C(C)(C)C)nn1-c1ccccc1 | -17.7% (inactive)
97 | N#Cc1cc2c(nc1SCC(=O)N1CCCCC1)CCCC2 | 2.1% (inactive)
98 | O=C(C1CCC1)N1CCc2cc(S(=O)(=O)Nc3ccc4c(c3)OCCO4)ccc21 | 3.8% (inactive)
99 | CCCCN(C(=O)NC(=O)Nc1cccc(C)c1C)S(C)(=O)=O | 1.6% (inactive)
100 | CC(C)(CO)NC(=O)CCCOc1ccc(Cl)cc1Cl | -0.1% (inactive)

same assay, conditions: cell-based imaging, cytoskeleton assembly phenotype, high content; cell count; at 10 µM; stronger effect = lower value

Row | SMILES | cell count [%]
101 | COc1cc(C(=O)N/N=C/c2ccsc2C)cc(OC)c1OC | 34.2
